Laboratory results from patent US20250276957A1, “CRYSTALLINE FORMS OF AN IL-17 INHIBITOR” (Novartis AG, priority 2022, published 2025).

Key:
Human IL-17A x IL-17RA = target: T1, Human IL-17A x IL-17RA (Homo sapiens, UniProt Q16552); details: biotinylated human IL-17A 5 nM, AF647-labeled human IL-17RA 30 nM; read-out: IL17AA FRET/IL17Rawt IC50; cited from earlier work
T1 sequence (Q16552 24-155): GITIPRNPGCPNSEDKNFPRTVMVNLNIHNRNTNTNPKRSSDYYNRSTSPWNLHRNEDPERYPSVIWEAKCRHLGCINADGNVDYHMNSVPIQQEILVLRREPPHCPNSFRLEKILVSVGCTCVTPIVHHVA

[1] = Dynamic vapor sorption (DVS) and stability at ambient temperature and humidity; type: physicochemical; details: water loss occurs quickly during handling
Description: Due to the unstable nature of hydrate HA at ambient temperature and humidity, water loss occurs quickly during handling of the samples and the high water content observed by DVS analysis was not seen in DSC or TGA analysis. This water loss behavior is considered to explain the different DSC and TGA results for the two hydrate HA samples.

stability at ambient temperature and humidity [1]	SMILES	IC50 (Human IL-17A x IL-17RA)
	Cc1cc[n+]([O-])c(C)c1-c1ccc(NC(=O)[C@@H](NC(=O)c2ccnn2C)[C@H]2CCCc3ccccc32)cc1 [2,4-dimethyl-3-(4-((S)-2-(1-methyl-1H-pyrazole-5-carboxamido)-2-((S)-1,2,3,4-tetrahydronaphthalen-1-yl)acetamido)phenyl)pyridine 1-oxide]	8 nM
unstable	Cc1cc[n+]([O-])c(C)c1-c1ccc(NC(=O)[C@@H](NC(=O)c2ccnn2C)[C@H]2CCCc3ccccc32)cc1 [hydrate HA, 2,4-dimethyl-3-(4-((S)-2-(1-methyl-1H-pyrazole-5-carboxamido)-2-((S)-1,2,3,4-tetrahydronaphthalen-1-yl)acetamido)phenyl)pyridine 1-oxide]	
